Data reported in patent US20110152313A1 (MACQUARIE UNIVERSITY, priority 2008, published 2011).

Legend:
Test in all cases: kinase binding screen (kinase-tagged T7 phage, qPCR), % Ctrl
[1] = molecular target: ROCK2 (Homo sapiens, UniProt O75116)
In short: (§1)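 Competition binding: kinase-tagged T7 phage (grown in BL21-derived E. coli, lysed at 32° C) incubated with immobilized ligand on biotin-blocked beads plus test compound; bound kinase in eluates quantified by qPCR. Compounds tested at a single set concentration, added from 40× DMSO stocks.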

[2] = molecular target: T1, DRAK1 (Homo sapiens, UniProt Q9UEE5)
T1 sequence (Q9UEE5 1-414): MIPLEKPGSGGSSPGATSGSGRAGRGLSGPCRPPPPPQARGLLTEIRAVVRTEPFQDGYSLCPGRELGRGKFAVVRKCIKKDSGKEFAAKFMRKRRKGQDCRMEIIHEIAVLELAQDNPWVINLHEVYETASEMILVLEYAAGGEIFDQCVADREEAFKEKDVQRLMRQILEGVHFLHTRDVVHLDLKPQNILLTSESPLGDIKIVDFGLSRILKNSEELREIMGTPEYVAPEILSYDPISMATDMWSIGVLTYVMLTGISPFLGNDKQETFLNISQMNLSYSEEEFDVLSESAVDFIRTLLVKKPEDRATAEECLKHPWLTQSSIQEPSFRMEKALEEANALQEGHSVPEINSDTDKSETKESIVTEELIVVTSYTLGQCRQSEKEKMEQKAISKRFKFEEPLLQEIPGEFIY
In short: as §1

[3] = molecular target: CAMK2G (Homo sapiens, UniProt Q13555)
In short: as §1

[4] = molecular target: T2, ZAP70 (Homo sapiens, UniProt P43403)
T2 sequence (P43403 1-619): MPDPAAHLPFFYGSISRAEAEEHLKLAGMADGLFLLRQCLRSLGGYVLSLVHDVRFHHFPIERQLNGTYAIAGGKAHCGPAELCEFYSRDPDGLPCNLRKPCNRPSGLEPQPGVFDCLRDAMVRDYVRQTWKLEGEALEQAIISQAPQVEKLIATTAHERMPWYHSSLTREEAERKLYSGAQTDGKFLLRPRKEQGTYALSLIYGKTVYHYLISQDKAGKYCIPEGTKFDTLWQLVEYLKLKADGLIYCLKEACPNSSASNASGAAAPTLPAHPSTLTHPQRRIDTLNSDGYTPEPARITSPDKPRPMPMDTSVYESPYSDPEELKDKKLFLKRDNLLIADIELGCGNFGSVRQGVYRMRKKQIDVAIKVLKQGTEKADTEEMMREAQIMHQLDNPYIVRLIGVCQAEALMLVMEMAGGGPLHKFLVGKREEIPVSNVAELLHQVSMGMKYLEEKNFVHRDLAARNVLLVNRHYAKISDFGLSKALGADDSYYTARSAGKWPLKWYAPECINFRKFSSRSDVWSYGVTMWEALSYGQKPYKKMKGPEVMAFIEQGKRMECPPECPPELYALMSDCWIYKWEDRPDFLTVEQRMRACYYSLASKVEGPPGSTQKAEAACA
In short: as §1

[5] = molecular target: T3, ULK3 (Homo sapiens, UniProt Q6PHR2)
T3 sequence (Q6PHR2 1-472): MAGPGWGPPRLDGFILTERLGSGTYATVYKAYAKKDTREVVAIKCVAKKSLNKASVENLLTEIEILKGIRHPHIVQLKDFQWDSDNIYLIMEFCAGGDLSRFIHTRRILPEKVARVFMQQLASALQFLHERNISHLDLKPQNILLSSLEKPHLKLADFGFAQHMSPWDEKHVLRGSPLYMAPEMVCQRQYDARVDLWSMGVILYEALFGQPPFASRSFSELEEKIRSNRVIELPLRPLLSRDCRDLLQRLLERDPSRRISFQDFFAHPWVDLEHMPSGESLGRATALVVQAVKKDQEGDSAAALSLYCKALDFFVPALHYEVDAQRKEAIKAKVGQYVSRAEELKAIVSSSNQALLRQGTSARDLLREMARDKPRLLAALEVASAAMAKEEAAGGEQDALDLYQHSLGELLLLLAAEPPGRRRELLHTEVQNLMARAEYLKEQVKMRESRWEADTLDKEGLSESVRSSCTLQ
In short: as §1

Sequence of CAMK2G (Q13555 whole entry): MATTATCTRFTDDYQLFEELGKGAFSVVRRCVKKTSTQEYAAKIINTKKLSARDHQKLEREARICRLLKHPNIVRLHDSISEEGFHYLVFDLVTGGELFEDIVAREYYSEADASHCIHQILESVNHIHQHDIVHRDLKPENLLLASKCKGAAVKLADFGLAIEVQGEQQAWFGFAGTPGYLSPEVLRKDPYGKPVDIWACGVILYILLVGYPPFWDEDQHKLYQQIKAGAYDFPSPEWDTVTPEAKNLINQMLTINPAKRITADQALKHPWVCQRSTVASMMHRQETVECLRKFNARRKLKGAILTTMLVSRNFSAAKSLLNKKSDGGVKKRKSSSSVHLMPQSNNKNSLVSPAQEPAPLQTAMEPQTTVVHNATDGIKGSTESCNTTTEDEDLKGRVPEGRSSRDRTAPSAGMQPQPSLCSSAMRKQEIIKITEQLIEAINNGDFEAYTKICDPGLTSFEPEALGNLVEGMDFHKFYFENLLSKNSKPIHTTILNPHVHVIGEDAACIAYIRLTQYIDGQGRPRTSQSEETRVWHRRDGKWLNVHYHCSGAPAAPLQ
Sequence of ROCK2 (O75116 whole entry, species assumed): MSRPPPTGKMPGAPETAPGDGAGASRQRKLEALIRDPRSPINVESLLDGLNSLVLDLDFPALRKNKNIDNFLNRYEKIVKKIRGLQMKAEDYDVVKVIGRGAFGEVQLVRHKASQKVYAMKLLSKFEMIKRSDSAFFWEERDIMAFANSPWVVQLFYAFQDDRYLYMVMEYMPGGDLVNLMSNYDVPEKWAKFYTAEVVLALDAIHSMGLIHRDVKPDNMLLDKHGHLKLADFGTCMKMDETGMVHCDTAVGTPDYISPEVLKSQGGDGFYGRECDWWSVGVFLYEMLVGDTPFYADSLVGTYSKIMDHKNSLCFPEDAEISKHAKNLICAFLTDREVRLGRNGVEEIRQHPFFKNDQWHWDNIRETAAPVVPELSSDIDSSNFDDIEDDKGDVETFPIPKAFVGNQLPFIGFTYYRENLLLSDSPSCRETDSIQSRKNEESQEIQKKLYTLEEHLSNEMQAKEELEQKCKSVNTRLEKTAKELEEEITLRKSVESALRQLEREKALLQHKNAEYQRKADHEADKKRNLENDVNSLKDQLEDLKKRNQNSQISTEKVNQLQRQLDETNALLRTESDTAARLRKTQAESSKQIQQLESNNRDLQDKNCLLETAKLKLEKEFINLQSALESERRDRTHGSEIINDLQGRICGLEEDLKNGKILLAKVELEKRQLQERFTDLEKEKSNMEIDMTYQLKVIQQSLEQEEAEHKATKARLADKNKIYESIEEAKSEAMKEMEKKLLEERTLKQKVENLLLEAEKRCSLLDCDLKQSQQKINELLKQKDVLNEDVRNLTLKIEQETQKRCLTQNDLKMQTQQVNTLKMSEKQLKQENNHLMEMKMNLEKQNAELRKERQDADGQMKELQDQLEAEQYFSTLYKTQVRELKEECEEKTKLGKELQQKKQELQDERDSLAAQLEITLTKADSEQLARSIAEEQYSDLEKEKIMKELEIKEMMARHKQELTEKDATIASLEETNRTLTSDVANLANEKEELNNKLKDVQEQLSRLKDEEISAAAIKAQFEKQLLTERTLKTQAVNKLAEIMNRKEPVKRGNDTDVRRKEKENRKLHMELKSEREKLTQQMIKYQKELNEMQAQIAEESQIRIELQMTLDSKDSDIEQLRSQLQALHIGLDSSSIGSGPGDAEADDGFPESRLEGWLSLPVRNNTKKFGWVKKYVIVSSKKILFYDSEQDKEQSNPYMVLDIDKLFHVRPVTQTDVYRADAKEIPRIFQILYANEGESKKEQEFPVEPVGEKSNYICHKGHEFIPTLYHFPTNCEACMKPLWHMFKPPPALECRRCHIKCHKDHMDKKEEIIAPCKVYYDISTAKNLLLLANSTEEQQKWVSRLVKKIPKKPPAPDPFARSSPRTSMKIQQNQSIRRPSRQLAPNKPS

remaining activity at 10 µM ([1]; 10 μM) [%] | remaining activity at 10 µM ([2]; 10 μM) [%] | remaining activity at 10 µM ([3]; 10 μM) [%] | remaining activity at 10 µM ([4]; 10 μM) [%] | remaining activity at 10 µM ([5]; 10 μM) [%] | SMILES | remaining activity at 1 µM [1] [%] | remaining activity at 1 µM [2] [%] | remaining activity at 1 µM [3] [%] | remaining activity at 1 µM [4] [%] | remaining activity at 1 µM [5] [%]
– | – | – | – | – | Nc1nc2c(-c3cnc4ccccc4c3)nccc2[nH]1 [drawing 36, 4-(quinolin-3-yl)-1H-imidazo[4,5-c]pyridin-2-amine] | 100 | 100 | 100 | 94 | 87
38 | 86 | 78 | 65 | 81 | Nc1nc2c(-c3cc(Br)c(Br)[nH]3)nccc2[nH]1 [Ageladine A, ageladine A, reference compound] | 65 | 78 | 100 | 81 | 82
– | – | – | – | – | Nc1nc2c(-c3ccccn3)nccc2[nH]1 [drawing 35, 4-(pyrid-2-yl)-1H-imidazo[4,5-c]pyridin-2-amine] | 45 | 56 | 20 | 54 | 51
